Patent US6825218B1, “Spherical agglomerates of telithromycin, their preparation process and their use in the preparation of pharmaceutical forms” (Aventis Pharma S. A., priority 1999, dated 2004)

Experiment: Granulometry: particle size by laser diffraction (HELOS SYMPATEC granulometer)
Format: physicochemical
Details: after sieving on a 500 μm grid
Description: The size of the particles is determined by laser diffraction using a HELOS SYMPATEC® model granulometer.

CC[C@H]1OC(=O)[C@H](C)C(=O)[C@H](C)[C@@H](O[C@@H]2O[C@H](C)C[C@H](N(C)C)[C@H]2O)[C@](C)(O)C[C@@H](C)C(=O)[C@H](C)[C@H]2N(CCCCn3cnc(-c4cccnc4)c3)C(=O)O[C@]12C [spherical agglomerates of telithromycin, 11,12-dideoxy-3-de((2,6-dideoxy-3-C-methyl-3-O-methyl-alpha-L-ribohexopyranosyl)oxy)-6-O-methyl-3-oxo-12,11-(oxycarbonyl((4-(4-(3-pyridinyl)-1H-imidazol-1-yl)butyl)imino))-erythromycin]
diameter of 10% of the particles (10% of the particles below this diameter): < 77 microns | diameter of 50% of the particles (50% of the particles below this diameter): < 107 microns | diameter of 90% of the particles (90% of the particles below this diameter): < 166 microns
